This is an account of results in patent US20220227729A1, “IDENTIFICATION AND USE OF KRAS INHIBITORS” (Bayer Aktiengesellschaft, priority 2019, published 2022).

pIC50: −log10 of the molar value.

Test [1] deals with recombinant kRas mutant (G12C; C51S; C80L; C118S) (Homo sapiens, UniProt P01116, C118S/C51S/C80L/G12C). As to the kind of experiment: Covalent binding assay, intact mass LC-MS. Conditions: 25 μM protein, 25 μM compound, room temperature, 2 h. The method, then: The percentage of covalent adduct formation at KRas G12C was determined by intact mass determination. To this end 25 μM recombinant kRas mutant (G12C; C51S; C80L; C118S) (storage buffer: 50 mM Tris, pH=8; 50 mM NaCl) were incubated with 25 μM of compound (1% v/v final DMSO concentration) at room temperature for 2 h. For LC-MS analysis the reaction was acidified by adding 4 μL of 4% v/v TFA to 20 μL reaction volume.
Liquid chromatography-mass spectrometry (LC-MS) analysis was performed using a Waters SYNAPT G2-S quadrupole time-of-flight mass spectrometer connected to a Waters nanoAcquity UPLC system. Samples were loaded on a 2.1×5 mm mass prep C4 guard column (Waters) and desalted with a short gradient (3 min.) of increasing concentrations of acetonitrile at a flow rate of 100 μL/min. Spectra were analyzed by using MassLynx v4.1 software and deconvoluted with the MaxEnt1 algorithm.
Percent conversion was determined by the ratio of signal intensities of apo-kRas and kRas+inhibitor.

A further test deals with KRAS^WT (Homo sapiens, UniProt P01116). Put plainly: Wild-type KRAS activation by SOS1cat assay, HTRF. Conditions: SOS1cat mediated loading of GST-KRAS WT-GDP with fluorescent GTP analogue; 50 nM GST-KRAS WT; read-out: IC50 value biochemical KRAS^wt activation assay. The method, then:
(§1) Preparation of test compound dilutions. A 100-fold concentrated solution of the test compound (50 nL) in DMSO was transferred to microtiter test plates (384 or 1,536 wells, Greiner Bio-One, Germany) using either a Hummingbird liquid handler (Digilab, MA, USA) or an Echo acoustic system (Labcyte, CA, USA). Plates were sealed with adhesive foil or heat-sealed and stored at −20° C. until use. Serial dilutions of test compounds were prepared in 100% DMSO using a Precision Pipetting System (BioTek, USA).
(§2) Measurement and evaluation of inhibition data, calculation of IC50 values. Homogeneous time-resolved fluorescence (HTRF) was measured with a PHERAstar reader (BMG, Germany) using the HTRF module (excitation: 337 nm; emission 1: 620 nm, emission 2: 665 nm). The ratio of the emissions at 665 and 620 nm was used as the specific signal for further evaluation. The data were normalized using the controls: DMSO=0% inhibition, inhibition control wells with inhibitor control solution=100% inhibition. Compounds were tested in duplicates at up to 11 concentrations (e.g. 20 μM, 5.7 μM, 1.6 μM, 0.47 μM, 0.13 μM, 38 nM, 11 nM, 3.1 nM, 0.89 nM, 0.25 nM and 0.073 nM). IC50 values were calculated using a four-parameter fit, with a commercial software package (Genedata Screener, Switzerland).
(§3) KRAS^G12C activation by SOS1^cat assay (“On-assay”). This assay quantifies SOS1^cat mediated loading of KRAS^G12C-GDP with a fluorescent GTP analogue. Detection of successful loading was achieved by measuring resonance energy transfer from anti-GST-terbium (FRET donor) bound to GST-KRAS^G12c to the loaded fluorescent GTP analogue (FRET acceptor). The fluorescent GTP analogue EDA-GTP-DY-647P1 [2′/3′-O-(2-aminoethyl-carbamoyl)guanosine-5′-triphosphate labelled with DY-647P1 (Dyomics GmbH, Germany)] was synthesized by Jena Bioscience (Germany) and supplied as a 1 mM aqueous solution. A KRAS^G12C working solution was prepared in assay buffer [10 mM HEPES pH 7.4 (AppliChem), 150 mM NaCl (Sigma), 5 mM MgCl2 (Sigma), 1 mM DTT (Thermo Fisher), 0.05% BSA Fraction V pH 7.0 (ICN Biomedicals), 0.0025% (v/v) Igepal (Sigma)] containing 100 nM GST-KRAS^G12C and 2 nM anti-GST-terbium (Cisbio, France). A SOS1^cat working solution was prepared in assay buffer containing 20 nM SOS1^cat and 200 nM EDA-GTP-DY-647P1. An inhibitor control solution was prepared in assay buffer containing 200 nM EDA-GTP-DY-647P1 without SOS1^cat. All steps of the assay were performed at 20° C. A volume of 2.5 μL of the KRAS^G12C working solution was added to all wells of the test plate using a Multidrop dispenser (Thermo LabSystems). After 180 min, 2.5 μL of the SOS1^cat working solution was added to all wells, except for the inhibitor control solution wells. After 30 min incubation, HTRF was measured.
Wild-type KRAS activation by SOS1^cat assay. This assay quantifies human SOS1^cat mediated loading of wild-type GST-KRAS^WT-GDP with a fluorescent GTP analogue. The assay was performed similar to the KRAS^G12C activation by SOS1^cat assay. GST-KRAS^G12C was replaced by GST-KRAS^WT, which was used at 50 nM final concentration.
For orientation: Time-resolved FRET reads energy transfer from a long-lived donor to a nearby acceptor.

The target in another test is KRAS^G12C (Homo sapiens, UniProt P01116, G12C). Put plainly: KRAS G12C activation by SOS1cat assay (On-assay), HTRF. Conditions: SOS1cat mediated loading of GST-KRAS G12C-GDP with fluorescent GTP analogue; 180 min preincubation; 20° C.; read-out: IC50 value biochemical KRAS^G12C activation assay. As to the method: as §1, §2, §3

Broadly, the pIC50 is the IC50 on a negative log10 scale, so that one unit is a factor of ten. `C=CC(=O)N1CCC(c2nc3ccc(-c4cccnc4N4CCOCC4)cc3c(=O)[nH]2)C1` (stereo not drawn) [Example 20, 6-[2-(Morpholin-4-yl)pyridin-3-yl]-2-[1-(prop-2-enoyl)pyrrolidin-3-yl]quinazolin-4(3H)-one]: the “Covalent Binding Assay (% binding)” value in test [1] worked out at 3%. For the same compound, the negative logarithm of the IC50 (pIC50) on KRAS^WT and on KRAS^G12C was less than 4.70 throughout.
Turning to `C=CC(=O)N1CCC(c2cc3ncc(-c4cc(O)ccc4F)cc3c(=O)[nH]2)C1` (stereo not drawn) [Example 36, 3-(2-Fluoro-5-hydroxyphenyl)-7-[1-(prop-2-enoyl)pyrrolidin-3-yl]-1,6-naphthyridin-5(6H)-one], in test [1], the “Covalent Binding Assay (% binding)” value stood at 85%. For the same compound, the pIC50 is less than 4.70 at KRAS^WT and 5.57 at KRAS^G12C.
In the same order, the values of `C=CC(=O)N1CCC(c2nc3ccc(-c4c(F)cccc4OC)cc3c(=O)[nH]2)C1` (stereo not drawn) [Example 11] are 41%, less than 4.70 and 4.80.
In the same order, the values of `C=CC(=O)N1CCC(c2nc3cc(Cl)c(-c4c(C)ccc5[nH]ncc45)cc3c(=O)[nH]2)C1` (stereo not drawn) [Example 25, 7-Chloro-6-(5-methyl-1H-indazol-4-yl)-2-[1-(prop-2-enoyl)pyrrolidin-3-yl]quinazolin-4(3H)-one] are 81%, less than 4.70 and 5.30.
